Measured values reported in patent US12312473B2, “Composition, film, near-infrared cut filter, pattern forming method, laminate, solid-state imaging element, infrared sensor, image display device, camera module, and compound” (FUJIFILM Corporation, priority 2019, dated 2025).
Converted amounts (≈) assume the structure as drawn.

Experiment: Solubility of coloring agent in PGMEA
Type: physicochemical
Conditions: propylene glycol methyl ether acetate (PGMEA), organic solvent or mixture, thermodynamic from solid, approx. 100 mg in 1 L propylene glycol methyl ether acetate at 25° C., stirred 30 minutes
Protocol: In the present disclosure, the solubility of the coloring agent having a structure represented by Formula (1) (that is, the specific coloring agent) is measured and obtained by the following method.
Under atmospheric pressure, approximately 100 mg (precisely weighed value is X mg) of the coloring agent having a structure represented by Formula (1) is added to 1 L of propylene glycol methyl ether acetate at 25° C., and the mixture is stirred for 30 minutes, allowed to stand for 5 minutes, and filtered. Thereafter, the filtrate is dried under reduced pressure at 80° C. for 2 hours and precisely weighed (precisely weighed value is Y mg), and the solubility of the specific coloring agent dissolved in propylene glycol methyl ether acetate is calculated from the following expression. PGMEA solubility (mg/L) of specific coloring agent=X—Y
Under atmospheric pressure, approximately 100 mg of the dispersion liquid of the coloring agents shown in Tables 1 to 4 (value of the coloring agents shown Tables 1 to 4 precisely weighed is defined as X mg) was added to 1 L of propylene glycol methyl ether acetate at 25° C., and the mixture was stirred for 30 minutes. Next, the mixture was allowed to stand for 5 minutes and filtered, and the filtrate was dried under reduced pressure at 80° C. for 2 hours and weighed precisely (value of the filtrate precisely weighed is defined as Y mg). Solubility of the coloring agents shown in Tables 1 to 4 dissolved in propylene glycol methyl ether acetate was calculated from the following expression.

solubility at 30 min [µg/mL]	SMILES
< 10	O=C1C(c2ccc3cccc4c3c2NC2(N4)c3ccccc3-c3ccc(OC(=O)c4ccc(C(=O)Oc5ccc6c(c5)C5(N=c7/c(=C8/C(=O)C(c9ccc%10cccc%11c%10c9NC9(N%11)c%10ccccc%10-c%10ccccc%109)=C8O)ccc8cccc(c78)N5)c5ccccc5-6)cc4)cc32)=C(O)/C1=c1/ccc2cccc3c2c1=NC1(N3)c2ccccc2-c2ccccc21 (centres unmarked) [A-sq-1]
< 10	O=C1C(c2ccc3cccc4c3c2NB(c2ccc(-c3ccc(B5Nc6cccc7ccc(C8=C(O)/C(=c9/ccc%10cccc%11c%10c9=NB(c9ccccc9)N%11)C8=O)c(c67)N5)cc3)cc2)N4)=C(O)/C1=c1/ccc2cccc3c2c1=NB(c1ccccc1)N3 [A-sq-5]
< 10	O=C1C(c2ccc3cccc4c3c2NC2(N4)c3ccccc3-c3ccccc32)=C(O)C1C1C=Cc2cccc3c2C1=NC1(N3)c2ccccc2-c2ccccc21 (centres unmarked) [compound 3, reference compound]
< 10	CC(=O)Nc1cc2c(cc1C1=C([O-])/C(=c3/cc4c(cc3NC(=O)c3ccc(C(=O)Nc5cc6c(cc5C5=C([O-])/C(=c7/cc8c(cc7NC(C)=O)=[N+](C)C(C)C8(C)C)C5=O)C(C)(C)C(C)N6C)cc3)=[N+](C)C(C)C4(C)C)C1=O)C(C)(C)C(C)N2C (centres unmarked) [A-sq-3]

SMILES	solubility at 30 min [µg/mL]
O=C1C(=O)/C(=C2/C=CC(=[N+]3CCC(C(=O)Oc4ccc(OC(=O)C5CC[N+](=C6C=C/C(=C7/C(=O)C(=O)C(c8ccc(N9CCC(C(=O)O)CC9)s8)=C7[O-])S6)CC5)cc4)CC3)S2)C([O-])=C1c1ccc(N2CCC(C(=O)O)CC2)s1 (centres unmarked) [A-cr-1]	50 to 100 (≈ 44.2 to 88.4 µM)
